Measurements: US7374894B2, “Methods of identifying compounds that modulate IL-4 receptor-mediated IgE synthesis utilizing a chloride intracellular channel 1 protein” (Rigel Pharmaceuticals, Inc., priority 2002, dated 2008)

What was measured:
[1] = test system: IL-4 induced germline ε transcription; test: Re-infection assay in naïve A5T4 reporter cells (BFP-/BFP+ GFP FACS); format: cell-based, human; conditions: for functional category of mutant as compared to wild type peptide, based on reporter ratio: % change calculated after subtracting 1.0 from the individual ratios; for Reporter Ratio: screening in the A5T4 reporter line, DL03 wt and double-residue mutants
Method: The ability of peptide DL03 wt (SEQ ID NO:1) to inhibit germline ε transcription was confirmed in naïve cells. Briefly, Phoenix cells were transfected with a retroviral vector encoding a BFP-DL03 wt (SEQ ID NO:1) peptide fusion as described in WO 99/58663 and WO 97/27213. Naïve A5T4 cells were infected with the resultant virions and grown for 3 days. The infected cells were stimulated with IL-4 (60 U/mL) and, after 3 days, the cells were assessed by FACS for BFP and GFP. […] The BFP fluorescence data corresponding to the BFP^+ and BFP^− populations are provided in Panel A. The GFP fluorescence data corresponding to the BFP^+ and BFP^− populations are presented in Panel B. The reporter ratio for this purpose is determined as the geometric mean of the GFP fluorescence of the BFP^− population divided by the geometric mean of the GFP fluorescence of the BFP^+ population as presented in panel C. The reporter ratio for the DL03 in this re-infection assay was 1.50.
A collection of DL03 mutants was generated by replacing double amino acid residues in the sequence of DL03 wt (SEQ ID NO:1) with a different amino acid, typically an alanine, as described in copending application Ser. No. 10/095,659. The functional profiles for the mutants derived from DL03 wt (SEQ ID NO:1) was obtained by constructing and screening for activity in the A5T4 reporter cell line in the manner described above. The activity of each mutant at the germline ε promoter is reflected in the reporter ratio as described above. The reporter ratios were the functional values that were used to develop the functional profiles.
Comparison of the interaction and functional profiles was performed by categorizing the mutants of DL03 based on the functional and interaction assays. Based on the reporter ratio, described in panel C of FIG. 4, each mutant was categorized into one of four functional categories: (1) reduction of function (ROF); (2) loss of function (LOF); (3) increase of function (IOF) or (4) functionally neutral (N) as compared to the activity of the wild type peptide, here DL03 wt (SEQ ID NO:1). As mentioned previously, cells expressing a peptide that inhibits germline ε transcription have reporter ratios of ≧1.1. Cell expressing a loss of function (LOF) mutant have a reporter ratio of […]. […] Functionally neutral mutants have reporter ratios that fall within ±50% of that of the DL03 wt (SEQ ID NO:1). The % increase or decrease in reporter ratio is calculated after subtracting 1.0 from the individual ratios. Using these criteria, peptide DL03IL (SEQ ID NO:2) and peptide DL03LA (SEQ ID NO:4) were designated as ROF mutants, peptide DL03KP (SEQ ID NO:3) was designated as a IOF mutant, peptides DL03TS (SEQ ID NO:5), DL03GA (SEQ ID NO:6), DL03TT (SEQ ID NO:7), DL03AS (SEQ ID NO:8), and DL03MT (SEQ ID NO:9) were designated as neutral. No LOF mutant were found for the DL03 clone.

human CLIC1 (hCLIC1) = biological target: T1, human CLIC1 (hCLIC1) (Homo sapiens, UniProt O00299); test: β-galactosidase yeast two hybrid (YTH) interaction assay; format: binding
T1 construct: expressed in transfected cells; prey cDNA from the A5T4 reporter line (derived from BJAB B-cells)
Method: Potential binding partners for peptide DL03 wt (SEQ ID: 1) were identified in a β-galactosidase yeast two-hybrid (YTH) assay using peptide DL03 wt (SEQ ID: 1) as bait and a cDNA library constructed from the A5T4 reporter cell line as prey. Binding was assessed by β-galactosidase quantification using BetaFluor (Novagen) as a substrate. A negative interaction control (no cDNA fused downstream of the GAL4 activation domain sequence) was also run. A general outline of the YTH assay is illustrated in FIG. 5A. Following clustering, filtering to remove non-specific bait hits (e.g., GFP and BFP), singletons and clusters recognized by 10 or more cDNA baits (based upon historical YTH assays), and prioritization, 22 prey clones were identified as hits.
Potential targets identified in the YTH assay were reconfirmed as generally outlined in FIG. 6. The cDNA clones identified as hits in the YTH assay were purified and rescreened for interaction with the DL03 wt (SEQ ID NO:1) peptide in a YTH assay. The hit clones were also screened in a control assay for interaction with the BFP using a vector (pGBKT7) that contained only the BFP and not the DL03 peptide. At this stage, 12 putative target clones remained.
The interaction of DL03 wt (SEQ ID NO:1) peptide and its mutants with the clones identified as potential targets for the peptide DL03 wt (SEQ ID NO:1) was then quantified in a β-galactosidase YTH assay. The YTH assay was performed in the manner described above. A general outline of this YTH assay is illustrated in FIG. 5B. For each clone tested, an interaction profile was developed by comparing the β-galactosidase activity of each mutant to that of the wild type peptide as described above.
The interaction of these IOF and ROF mutants with different polypeptides encoded by the putative target clones were quantified using the YTH assay described above. Based on the YTH assay, for each putative target, the mutants were categorized into the following four interaction categories: (1) reduction of interaction (ROI); (2) loss of interaction (LOI); (3) increase of interaction (IOI); and (4) interactionally neutral (N), by assessing the binding affinity ratio of the mutant peptide and the wild type peptide (β-gal activity of mutant/wild type) to the putative target. For the YTH interaction assay mutants DL03IL (SEQ ID NO:2), DL03KP (SEQ ID NO:3), DL03LA (SEQ ID NO:4), as well as originally identified peptide DL03 wt (SEQ ID NO:1) were used.
Based on these functional and interaction categorizations, graphic profile representations for each potential target polypeptide were obtained using a weighted categorization process as depicted in FIG. 9. […]

germline α promoter = test: TAQMAN assay of endogenous germline α transcription in ST486 cells stimulated with TGF-β; format: cell-based; conditions: TGF-β 40 ng/ml, average of 3 values, p=0.3228
Method: The assay was similar to that described in the immediately preceding section, except that ST486 cells (ATCC # CRL-1647) engineered to express the tetracycline-regulated transactivator were infected and the infected cells were stimulated with TGF-β (40 ng/ml; Peprotech). The primers and probe, which are specific for the transcription product driven by the ST486 endogenous α promoter, were as follows (the probe was labeled at the 5′-end with Fam and at the 3′-end with Tamra): […]

Row | Substance | functional category of mutant as compared to wild type peptide, based on reporter ratio [1] | Reporter Ratio [1] | binding to human CLIC1 in yeast two hybrid interaction assay (human CLIC1 (hCLIC1)) | endogenous α inhibition ratio (germline α promoter)
1 | LYAAI LLHGATTASMTKPLA (LYAAILLHGATTASMTKPLA; peptide generated from combinatorial library) [DL03TS, double-residue mutant of DL03 wt] | neutral | 1.49 | – | –
2 | LYTS I LLHARTTASMTKPLA (LYTSILLHARTTASMTKPLA; peptide generated from combinatorial library) [DL03GA, double-residue mutant of DL03 wt] | neutral | 1.67 | – | –
3 | LYTS I LLHGAAAASMTKPLA (LYTSILLHGAAAASMTKPLA; peptide generated from combinatorial library) [DL03TT, double-residue mutant of DL03 wt] | neutral | 1.43 | – | –
4 | LYTS I LLHGATTASAAKPLA (LYTSILLHGATTASAAKPLA; Peptide generated from combinatorial library) [DL03MT, double-residue mutant of DL03 wt] | neutral | 1.30 | – | –
5 | LYTS I LLHGATTASMTAALA (LYTSILLHGATTASMTAALA; peptide generated from combinatorial library) [DL03KP, double-residue mutant of DL03 wt] | IOF (An increase of function mutant (IOF) shows a >50% increase in reporter ratio) | – | found to bind | –
6 | LYTS I LLHGATTASMTKPAR (LYTSILLHGATTASMTKPAR; peptide generated from combinatorial library) [DL03LA, double-residue mutant of DL03 wt] | – | – | found to bind | –
7 | LYTS I LLHGATTASMTKPLA (LYTSILLHGATTASMTKPLA; peptide generated from a combinatorial library) [DL03wt, peptide 20-mer identified from a retroviral random library, expressed in cells as BFP-peptide fusion] | – | – | found to bind | 0.66
8 | LYTS I LLHGATTRAMTKPLA (LYTSILLHGATTRAMTKPLA; Peptide generated from combinatorial library) [DL03AS, double-residue mutant of DL03 wt] | neutral | 1.57 | – | –
9 | LYTSAALHGATTASMTKPLA (Peptide generated by a combinatorial library) [DL03IL, double-residue mutant of DL03 wt] | – | – | found to bind | –
